Reference: US9133157B2, “HIV protease inhibitors” (Merck Canada Inc., priority 2011, dated 2015)

biological target: WT HIV-1 protease (Human immunodeficiency virus type 1 group M subtype B (isolate HXB2) (HIV-1), UniProt P04585); assay: Assay for inhibition of microbial expressed HIV protease (Procedure A, peptide substrate, HPLC fluorescence detection); assay type: biochemical; conditions: WT HIV-1 protease 10 pM, substrate 400 micromolar, pH 5.5, 30 min preincubation, 1 hour at 30° C.; read-out: Enzyme inhibition IC50
Procedure: The inhibition of WT HIV-1 protease was studied using the reaction of the protease (expressed in Eschericia coli) with a peptide substrate [Val-Ser-Gln-Asn-(betanaphthyl)Ala-Pro-Ile-Val (SEQ ID NO:1)]. Compounds were tested using Procedure A. In Procedure A, the test compound was first preincubated with the enzyme in assay buffer (50 mM sodium acetate, pH 5.5, 100 mM NaCl, and 0.1% BSA) for 30 minutes at room temperature. Substrate was then added to 400 micromolar in a total volume of 80 microliters containing 10 picomolar HIV-1 protease and the reaction was incubated for 1 hour at 30° C. The reaction was quenched with the addition of 120 microliters of 10% phosphoric acid. The product formation was determined after separation of product and substrate on a Zorbax Eclipse XDB-C18 column (Agilent Technologies, Santa Clara, Calif.) connected to an Agilent 1100 high performance liquid chromatography system with fluorescence detection (excitation 270 nanometer and emission 330 nanometer).

| Structure (SMILES) | IC50 [nM] |
| --- | --- |
| COC(=O)N[C@H](C(=O)N[C@H](c1ccc([C@@H](CO)N(CCC(C)(C)C)S(=O)(=O)c2ccc(N)cc2)s1)C(F)(F)F)C(c1ccccc1)c1ccccc1 [Example 44, N-[(1S)-1-{5-[(1R)-1-{[(4-aminophenyl)sulfonyl](3,3-dimethylbutyl)amino}-2-hydroxyethyl]thiophen-2-yl}-2,2,2-trifluoroethyl]-Nα-(methoxycarbonyl)-β-phenyl-L-phenylalaninamide] | 0.196 |
| [2H]C([2H])([2H])C(N([C@H](CO)c1ccc([C@@H](NC(=O)[C@@H](NC(=O)OC)C(c2ccccc2)c2ccccc2)C(F)(F)F)s1)S(=O)(=O)c1ccc(N)cc1)C([2H])([2H])[2H] [Example 47, N-[(1S)-1-{5-[(1R)-1-{[(4-aminophenyl)sulfonyl][(1,1,1,3,3,3-^2H6)propan-2-yl]amino}-2-hydroxyethyl]thiophen-2-yl}-2,2,2-trifluoroethyl]-Nα-(methoxycarbonyl)-β-phenyl-L-phenylalaninamide] | 33.7 |
| COC(=O)N[C@H](C(=O)N[C@H](c1ccc([C@@H](CO)N(C(C)C)S(=O)(=O)c2ccc(N)s2)s1)C(F)(F)F)C(c1ccccc1)c1ccccc1 [Example 50, N-[(1S)-1-{5-[(1R)-1-{[(5-aminothiophen-2-yl)sulfonyl](propan-2-yl)amino}-2-hydroxyethyl]thiophen-2-yl}-2,2,2-trifluoroethyl]-Nα-(methoxycarbonyl)-β-phenyl-L-phenylalaninamide] | 121 |
| COC(=O)N[C@H](C(=O)N[C@H](c1ccc([C@@H](CO)N(CCC(C)(C)C)S(=O)(=O)c2ccn3ccnc3c2)s1)C(F)(F)F)C(c1ccccc1)c1ccccc1 [Example 51, N-[(1S)-1-(5-{(1R)-1-[(3,3-dimethylbutyl)(imidazo[1,2-c]pyridin-7-ylsulfonyl)amino]-2-hydroxyethyl}thiophen-2-yl)-2,2,2-trifluoroethyl]-Nα-(methoxycarbonyl)-β-phenyl-L-phenylalaninamide] | 17.5 |
| COC(=O)N[C@H](C(=O)N[C@H](c1ccc([C@@H](CO)N(CCC(C)(C)C)S(=O)(=O)c2cc(F)c(CO)c(F)c2)s1)C(F)(F)F)C(c1ccccc1)c1ccccc1 [Example 52, N-[(1S)-1-(5-{(1R)-1-[{[3,5-difluoro-4-(hydroxymethyl)phenyl]sulfonyl}(3,3-dimethylbutyl)amino]-2-hydroxyethyl}thiophen-2-yl)-2,2,2-trifluoroethyl]-Nα-(methoxycarbonyl)-β-phenyl-L-phenylalaninamide] | 2 |
| COC(=O)N[C@H](C(=O)N[C@H](c1ccc([C@@H](CO)N(CCC(C)(C)C)S(=O)(=O)c2ccc(CO)cc2)s1)C(F)(F)F)C(c1ccccc1)c1ccccc1 [Example 53, N-[(1S)-1-(5-{(1R)-1-[(3,3-dimethylbutyl){[4-(hydroxymethyl)phenyl]sulfonyl}amino]-2-hydroxyethyl}thiophen-2-yl)-2,2,2-trifluoroethyl]-Nα-(methoxycarbonyl)-β-phenyl-L-phenylalaninamide] | 0.156 |
| COC(=O)N[C@H](C(=O)N[C@H](c1ccc([C@@H](CO)N(CCC(C)(C)C)S(=O)(=O)c2cc3ccccc3[nH]2)s1)C(F)(F)F)C(c1ccccc1)c1ccccc1 [Example 55, N-[(1S)-1-(5-{(1R)-1-[(3,3-dimethylbutyl)(1H-indol-2-ylsulfonyl)amino]-2-hydroxyethyl}thiophen-2-yl)-2,2,2-trifluoroethyl]-Nα-(methoxycarbonyl)-β-phenyl-L-phenylalaninamide] | 45.8 |
| COC(=O)N[C@H](C(=O)N[C@H](c1ccc([C@@H](CO)N(CCC(C)(C)C)S(=O)(=O)c2ccc(CO)c(C(F)(F)F)c2)s1)C(F)(F)F)C(c1ccccc1)c1ccccc1 [Example 56, N-[(1S)-1-(5-{(1R)-1-[(3,3-dimethylbutyl){[4-(hydroxymethyl)-3-(trifluoromethyl)phenyl]sulfonyl}amino]-2-hydroxyethyl}thiophen-2-yl)-2,2,2-trifluoroethyl]-Nα-(methoxycarbonyl)-β-phenyl-L-phenylalaninamide] | 59.4 |
| COC(=O)N[C@H](C(=O)N[C@H](c1ccc([C@@H](CO)N(CCC(C)(C)C)S(=O)(=O)c2ccc(N)cn2)s1)C(F)(F)F)C(c1ccccc1)c1ccccc1 [Example 57, N-[(1S)-1-{5-[(1R)-1-{[(5-aminopyridin-2-yl)sulfonyl](3,3-dimethylbutyl)amino}-2-hydroxyethyl]thiophen-2-yl}-2,2,2-trifluoroethyl]-Nα-(methoxycarbonyl)-β-phenyl-L-phenylalaninamide] | 1.32 |
| COC(=O)N[C@H](C(=O)N[C@H](c1ccc([C@@H](CO)N(CCC(C)(C)C)S(=O)(=O)c2cccc3[nH]ccc23)s1)C(F)(F)F)C(c1ccccc1)c1ccccc1 [Example 59, N-[(1S)-1-(5-{(1R)-1-[(3,3-dimethylbutyl)(1H-indol-4-ylsulfonyl)amino]-2-hydroxyethyl}thiophen-2-yl)-2,2,2-trifluoroethyl]-Nα-(methoxycarbonyl)-β-phenyl-L-phenylalaninamide] | 4.22 |
| COC(=O)N[C@H](C(=O)N[C@H](c1ccc([C@@H](CO)N(CC(C)C)S(=O)(=O)c2ccc(N)cc2)s1)C(F)(F)F)C(c1ccccc1)c1ccccc1 [Example 60, N-[(1S)-1-{5-[(1R)-1-{[(4-aminophenyl)sulfonyl](2-methylpropyl)amino}-2-hydroxyethyl]thiophen-2-yl}-2,2,2-trifluoroethyy]-Nα-(methoxycarbonyl)-β-phenyl-L-phenylalaninamide] | 2.01 |
| COC(=O)N[C@H](C(=O)N[C@@H](c1ccc([C@@H](CO)N(CC(C)C)S(=O)(=O)c2ccc(N)cc2)s1)C(F)(F)F)C(c1ccccc1)c1ccccc1 [Example 61, N-[(1R)-1-{5-[(1R)-1-{[(4-aminophenyl)sulfonyl](2-methylpropyl)amino}-2-hydroxyethyl]thiophen-2-yl}-2,2,2-trifluoroethyl]-Nα-(methoxycarbonyl)-β-phenyl-L-phenylalaninamide] | 23 |
| CCN([C@H](CO)c1ccc([C@@H](NC(=O)[C@@H](NC(=O)OC)C(c2ccccc2)c2ccccc2)C(F)(F)F)s1)S(=O)(=O)c1ccc(N)cc1 [Example 62] | 18.5 |
| COC(=O)N[C@H](C(=O)N[C@H](c1ccc([C@@H](CO)N(CC(C)C)S(=O)(=O)c2ccc(N)cc2)s1)C1CC1)C(c1ccccc1)c1ccccc1 [Example 63, N-[(S)-{[4(1R)-1-{[(4-aminophenyl)sulfonyl](2-methylpropyl)amino}-2-hydroxyethyl]thiophen-2-yl}(cyclopropyl)methyl]-Nα-(methoxycarbonyl)-β-phenyl-L-phenylalaninamide] | 3.98 |
| COC(=O)N[C@H](C(=O)NC(C)(C)c1ccc(C(CO)N(CCC(C)C)S(=O)(=O)c2ccccc2)s1)C(c1ccccc1)c1ccccc1 (stereo partly drawn) [Example 64] | 6.48 |
| COC(=O)N[C@H](C(=O)N[C@H](c1ccc([C@@H](CO)N(C(C)C)S(=O)(=O)c2ccc(CO)cc2)s1)C(F)(F)F)C(c1ccccc1)c1ccccc1 [Example 65, Nα-(methoxycarbonyl)-β-phenyl-N-[(1S)-2,2,2-trifluoro-1-(5-{(1R)-2-hydroxy-1-[{[4-(hydroxymethyl)phenyl]sulfonyl}(propan-2-yl)amino]ethyl}thiophen-2-yl)ethyl]-L-phenylalaninamide] | 0.18 |
| COC(=O)Nc1ccc(S(=O)(=O)N(CCC(C)(C)C)[C@H](CO)c2ccc([C@@H](NC(=O)[C@@H](NC(=O)OC)C(c3ccccc3)c3ccccc3)C(F)(F)F)s2)cc1 [Example 70, N-[(1S)-1-(5-{1-[(3,3-dimethylbutyl)({4-[(methoxycarbonyl)amino]phenyl}sulfonyl)amino]-2-hydroxyethyl}thiophen-2-yl)-2,2,2-trifluoroethyl]-Nα-(methoxycarbonyl)-β-phenyl-L-phenylalaninamide] | 3.16 |
| COC(=O)N[C@H](C(=O)N[C@H](c1ccc([C@@H](CO)N(CCC(C)(C)C)S(=O)(=O)c2ccc3nccn3c2)s1)C(F)(F)F)C(c1ccccc1)c1ccccc1 [Example 71, N-[(1S)-1-(5-{(1R)-1-[(3,3-dimethylbutyl)(imidazo[1,2-a]pyridin-6-ylsulfonyl)amino]-2-hydroxyethyl}thiophen-2-yl)-2,2,2-trifluoroethyl]-Nα-(methoxycarbonyl)-β-phenyl-L-phenylalaninamide] | 6.64 |
| COC(=O)N[C@H](C(=O)N[C@H](c1ccc([C@@H](CO)N(CCC(C)(C)C)S(=O)(=O)c2ccc3ncccc3c2)s1)C(F)(F)F)C(c1ccccc1)c1ccccc1 [Example 73, Methyl [(2S)-1-{[(1S)-1-(5-{(1R)-1-[(3,3-dimethylbutyl)(quinolin-6-ylsulfonyl)amino]-2-hydroxyethyl}thiophen-2-yl)-2,2,2-trifluoroethyl]amino}-1-oxo-3,3-diphenylpropan-2-yl]carbamate] | 2.03 |
| COC(=O)N[C@H](C(=O)N[C@H](c1ccc([C@@H](CO)N(CCC(C)(C)C)S(=O)(=O)c2ccc3nc[nH]c3c2)s1)C(F)(F)F)C(c1ccccc1)c1ccccc1 [Example 74, N-[(1S)-1-(5-{(1R)-1-[(1H-benzimidazol-6-ylsulfonyl)(3,3-dimethylbutyl)amino]-2-hydroxyethyl}thiophen-2-yl)-2,2,2-trifluoroethyl]-Nα-(methoxycarbonyl)-β-phenyl-L-phenylalaninamide] | 0.45 |
| COC(=O)N[C@H](C(=O)N[C@@H](C)c1ccc([C@@H](CO)N(C(C)C)S(=O)(=O)c2ccc(N)cc2)s1)C(c1ccccc1)c1ccccc1 [Example 75, N-[(1S)-1-{5-[(1R)-1-{[(4-aminophenyl)sulfonyl](propan-2-yl)amino}-2-hydroxyethyl]thiophen-2-yl}ethyl]-Nα-(methoxycarbonyl)-β-phenyl-L-phenylalaninamide] | 7.89 |
